Measurements reported in patent US6369069B1 (Aventis Pharma Deutschland GmbH, priority 1998, dated 2002).

Assays:
[1] = tested on: Na^+-dependent Cl^−/HCO3^− exchanger (NCBE); test: Inhibition of the Na+-dependent Cl−/HCO3− exchanger (NCBE) in human endothelial cells (pHi recovery, BCECF fluorescence, FLIPR); type: cell-based; conditions: for Residual activity of the NCBE at 10 μM: 10 μM compound, human endothelial cells (ECV-304), related to 100% and 0% pHi recovery controls
Summary of the method: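 Fluorescence rise (FLIPR, 2 min, 35 °C) tracked pHi recovery in acid-loaded, BCECF-loaded ECV-304 cells after adding Na+- and HCO3−-containing buffer with 50 μM HOE 642 and graded compound doses. Inhibition was calculated against full-recovery and bicarbonate-free no-recovery controls.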

[2] = compound at 10 μM, sub-table with R7 substituent

Row | Compound | melting point | Residual activity of the NCBE at 10 μM [1] | Residual activity % of the NCBE at 10 μM ([1]; 10 μM) | also measured
1 | N#CNS(=O)(=O)c1ccccc1-c1ccc(CN(Cc2ccccc2)C(=O)Cc2ccccc2C(F)(F)F)cc1 [Example 562, 4′-{[Benzyl-2-(2-trifluoromethylphenyl)acetylamino]methyl}biphenyl-2-sulfonylcyanamide] | 90 °C (dec.) | 33% | – | –
2 | Cc1ccc(C(=O)N(Cc2ccccc2)Cc2ccc(-c3ccccc3S(=O)(=O)NC#N)cc2)s1 [Example 568, 4′-{[Benzyl-(5-methylthiophen-2-yl)carbonylamino]methyl}biphenyl-2-sulfonylcyanamide] | 166 °C (dec.) | 70% | – | –
3 | N#CNS(=O)(=O)c1ccccc1-c1ccc(CN(Cc2ccccc2)C(=O)c2ccccc2OC(F)(F)F)cc1 [Example 567, 4′-{[Benzyl-2-trifluoromethoxybenzoylamino]methyl}biphenyl-2-sulfonylcyanamide] | 160 °C (dec.) | 69% | – | –
4 | N#CNS(=O)(=O)c1ccccc1-c1ccc(CN(Cc2ccccc2)C(=O)c2ccccc2C(F)(F)F)cc1 [Example 566, 4′-{[Benzyl-2-trifluoromethylbenzoylamino]methyl}biphenyl-2-sulfonylcyanamide] | 165 °C (dec.) | 72% | – | –
5 | N#CNS(=O)(=O)c1ccccc1-c1ccc(CN(Cc2ccccc2)C(=O)Cc2ccccc2OC(F)(F)F)cc1 [Example 563, 4′-{[Benzyl-2-(2-trifluoromethoxyphenyl)acetylamino]methyl}biphenyl-2-sulfonylcyanamide] | 125 °C (dec.) | 46% | – | –
6 | N#CNS(=O)(=O)c1ccccc1-c1ccc(CN(Cc2ccccc2)C(=O)Cc2ccccc2SC(F)(F)F)cc1 [Example 564] | 122 °C (dec.) | 23% | – | –
7 | COc1ccc(CC(=O)N(Cc2ccc(-c3ccccc3S(=O)(=O)NC#N)cc2)Cc2cc(OC)c(OC)c(OC)c2)cc1 [Example 176] | – | – | 83.9% | –
8 | N#CNS(=O)(=O)c1ccccc1-c1ccc(CN(CCCc2ccccc2)C(=O)CCCc2cccs2)cc1 [Example 186] | – | – | 9.7% | –
9 | CCCC(=O)N(Cc1ccc(-c2ccccc2S(=O)(=O)NC#N)cc1)C1CCCCC1 [Example 6] | – | – | 84.5% | –
10 | N#CNS(=O)(=O)c1ccccc1-c1ccc(CN(Cc2ccccc2)C(=O)c2ccccc2F)cc1 [Example 37] | – | – | 52.0% | –
11 | CCC(CC)(CN(Cc1ccc(-c2ccccc2S(=O)(=O)NC#N)cc1)C(=O)Cc1cccs1)c1ccc(OC)cc1 [Example 395] | – | – | – | Residual activity % of the NCBE at 10 μM ([1]; compound at 10 μM, R(3) to R(7) hydrogen series): 50.9%
12 | Cc1ccc(-c2ccc(CN(Cc3cccs3)C(=O)Cc3ccsc3)cc2)c(S(=O)(=O)NC#N)c1 [Example 541] | – | – | – | Residual activity % of the NCBE at 10 μM [1, 2]: 52.8%
13 | COc1cccc(CN(Cc2ccc(-c3ccccc3S(=O)(=O)NC#N)cc2)C(=O)NC2CCCCC2)c1 [Example 304] | – | – | 56.0% | –
14 | N#CNS(=O)(=O)c1ccccc1-c1ccc(CN(Cc2ccccc2Cl)C(=O)Cc2ccc(Cl)cc2)cc1 [Example 152] | – | – | 29.5% | –
15 | Cc1ccc(-c2ccc(CN(Cc3ccccc3F)C(=O)C(C)c3cccs3)cc2)c(S(=O)(=O)NC#N)c1 (stereo not drawn) [Example 527] | – | – | – | Residual activity % of the NCBE at 10 μM [1, 2]: 67.5%
16 | COCCC(=O)N(Cc1ccc(-c2ccccc2S(=O)(=O)NC#N)cc1)Cc1ccccc1C [Example 322] | – | – | 66.3% | –
17 | N#CNS(=O)(=O)c1ccccc1-c1ccc(CN(Cc2cccs2)C(=O)NCc2ccccc2)cc1 [Example 295] | – | – | 8.0% | –
18 | Cc1ccccc1C(=O)N(Cc1ccccc1)Cc1ccc(-c2ccccc2S(=O)(=O)NC#N)cc1 [Example 565, 4′-{[Benzyl-2-methylbenzoylamino]methyl}biphenyl-2-sulfonylcyanamide] | 173 °C (dec.) | 42% | – | –
19 | CC(C)(C)c1ccc(C(=O)N(CCO)Cc2ccc(-c3ccccc3S(=O)(=O)NC#N)cc2)cc1 [Example 32] | – | – | 68.0% | –
20 | Cc1ccc(-c2ccc(CN(Cc3ccc4ccccc4c3)C(=O)C(C)c3cccs3)cc2)c(S(=O)(=O)NC#N)c1 (stereo not drawn) [Example 523] | – | – | – | Residual activity % of the NCBE at 10 μM [1, 2]: 92.3%
21 | Cc1ccccc1CC(=O)N(Cc1ccccc1)Cc1ccc(-c2ccccc2S(=O)(=O)NC#N)cc1 [Example 561, 4′-{[Benzyl-2-(2-methylphenyl)acetylamino]methyl}biphenyl-2-sulfonylcyanamide] | 108 °C (dec.) | 16% | – | –
22 | N#CNS(=O)(=O)c1ccccc1-c1ccc(CN(C(=O)CCCc2cccs2)C2CC2)cc1 [Example 189] | – | – | 72.5% | –
23 | N#CNS(=O)(=O)c1ccccc1-c1ccc(CN(CC2CCCCC2)C(=O)CCC2CCCCC2)cc1 [Example 267] | – | – | 57.9% | –
24 | COc1ccccc1CN(Cc1ccc(-c2ccccc2S(=O)(=O)NC#N)cc1)C(=O)Cc1ccccc1 [Example 124] | – | – | 46.5% | –
25 | COc1ccccc1CN(Cc1ccc(-c2ccccc2S(=O)(=O)NC#N)cc1)C(=O)c1cc2ccccc2s1 [Example 74] | – | – | 54.7% | –
